Values of other authors, collected in patent US10231995B2, “Selenium-containing compositions and uses thereof” (SELO MEDICAL GMBH, priority 2001, dated 2019).
Like-named read-outs stand apart in the source and are kept apart here.

Compound: O=[Se](O)O [selenite]
- Eo standard redox potential (acidic medium): −0.740 (acidic medium) Volt
- Eo standard redox potential (basic medium): +0.366 (basic medium) Volt
